Assay results reported in ChEMBL document CHEMBL4346657, “Anticancer activity, dual prooxidant/antioxidant effect and apoptosis induction profile of new bichalcophene-5-carboxamidines” (Eur J Med Chem, 2019).
Activity calls are given as the source filed them. No cut-off for these calls is given here.

Key:
SNB-75 = assay: Antiproliferative activity against human SNB75 cells assessed as growth inhibition after 48 hrs by sulforhodamine B assay; type: functional; details: SNB-75, 48 h
HCT-116 [1] = assay: Induction of apoptosis in human HCT116 cells assessed as increase in caspase 3 mRNA expression at 100 nM after 6 hrs hrs by SYBR green dye-based qRT-PCR analysis relative to control; type: functional
OVCAR-3 = assay: Antiproliferative activity against human OVCAR3 cells assessed as growth inhibition after 48 hrs by sulforhodamine B assay; type: functional; details: OVCAR-3, 48 h
SF-539 = assay: Antiproliferative activity against human SF539 cells assessed as growth inhibition after 48 hrs by sulforhodamine B assay; type: functional; details: SF-539, 48 h
SF-268 = assay: Antiproliferative activity against human SF268 cells assessed as growth inhibition after 48 hrs by sulforhodamine B assay; type: functional; details: SF-268, 48 h
[2] = Haemolytic activity in human erythrocytes assessed as induction of hemolysis at 10 mM after 30 mins relative to H202; type: cell-based, Erythrocyte; details: read-out: Activity
UO-31 = assay: Antiproliferative activity against human UO31 cells assessed as growth inhibition after 48 hrs by sulforhodamine B assay; type: functional; details: UO-31, 48 h
A549 = assay: Antiproliferative activity against human A549/ATCC cells assessed as growth inhibition after 48 hrs by sulforhodamine B assay; type: functional; details: A549, 48 h
OVCAR-5 = assay: Antiproliferative activity against human OVCAR5 cells assessed as growth inhibition after 48 hrs by sulforhodamine B assay; type: functional; details: OVCAR-5, 48 h
[3] = Antioxidant activity assessed as ABTS radical scavenging activity by spectrophotometric analysis relative to control; type: functional; parameters: concentration or dose not given beside the values; details: dose or concentration not given here
TK-10 = assay: Antiproliferative activity against human TK10 cells assessed as growth inhibition after 48 hrs by sulforhodamine B assay; type: functional; details: TK-10, 48 h
[4] = Antioxidant activity assessed as DPPH radical scavenging activity incubated in dark for 30 mins by spectrophotometric method relative to control; type: functional; parameters: concentration or dose not given beside the values
HCT-116 [5] = assay: Induction of apoptosis in human HCT116 cells assessed as increase in p53 mRNA expression at 100 nM after 6 hrs hrs by SYBR green dye-based qRT-PCR analysis relative to control; type: functional
MCF7 = assay: Antiproliferative activity against human MCF7 cells assessed as growth inhibition after 48 hrs by sulforhodamine B assay; type: functional; details: MCF7, 48 h
MOLT-4 = assay: Antiproliferative activity against human MOLT4 cells assessed as growth inhibition after 48 hrs by sulforhodamine B assay; type: functional; details: MOLT-4, 48 h
OVCAR-4 = assay: Antiproliferative activity against human OVCAR4 cells assessed as growth inhibition after 48 hrs by sulforhodamine B assay; type: functional; details: OVCAR-4, 48 h
[6] = Haemolytic activity in human erythrocytes assessed as induction of hemolysis at 5 mM after 30 mins relative to H202; type: cell-based, Erythrocyte; details: read-out: Activity
PC-3 = assay: Antiproliferative activity against human PC3 cells assessed as growth inhibition after 48 hrs by sulforhodamine B assay; type: functional; details: PC-3, 48 h
CAKI-1 = assay: Antiproliferative activity against human CAKI-1 cells assessed as growth inhibition after 48 hrs by sulforhodamine B assay; type: functional; details: CAKI-1, 48 h
NCI-H460 = assay: Antiproliferative activity against human NCI-H460 cells assessed as growth inhibition after 48 hrs by sulforhodamine B assay; type: functional; details: NCI-H460, 48 h
BT-549 = assay: Antiproliferative activity against human BT549 cells assessed as growth inhibition after 48 hrs by sulforhodamine B assay; type: functional; details: BT-549, 48 h
MDA-MB-435 = assay: Antiproliferative activity against human MDA-MB-435 cells assessed as growth inhibition after 48 hrs by sulforhodamine B assay; type: functional; details: MDA-MB-435, 48 h
DU-145 = assay: Antiproliferative activity against human DU145 cells assessed as growth inhibition after 48 hrs by sulforhodamine B assay; type: functional; details: DU-145, 48 h
[7] = system: Panel NCI-60 (60 carcinoma cell lines); assay: Antiproliferative activity against human NCI60 cells assessed as growth inhibition after 48 hrs by sulforhodamine B assay; type: functional
UACC-257 = assay: Antiproliferative activity against human UACC257 cells assessed as growth inhibition after 48 hrs by sulforhodamine B assay; type: functional; details: UACC-257, 48 h
[8] = Antioxidant activity assessed as hydroxyl radical scavenging activity after 1 hr by salicylic acid-based Fenton reaction assay; type: functional
MDA-MB-468 = assay: Antiproliferative activity against human MDA-MB-468 cells assessed as growth inhibition after 48 hrs by sulforhodamine B assay; type: functional; details: MDA-MB-468, 48 h
Malme-3M = assay: Antiproliferative activity against human MALME-3M cells assessed as growth inhibition after 48 hrs by sulforhodamine B assay; type: functional
SK-OV-3 = assay: Antiproliferative activity against human SKOV3 cells assessed as growth inhibition after 48 hrs by sulforhodamine B assay; type: functional; details: SK-OV-3, 48 h
HCT-116 [9] = assay: […] in CDK1 mRNA expression in human HCT116 cells at 100 nM after 6 hrs hrs by SYBR green dye-based qRT-PCR analysis relative to control; type: functional
[10] = Pro-oxidant activity assessed as increase in bleomycin-Fe2+ induced calf thymus DNA damage at 2 mM after 1 hr by thiobarbituric acid based absorbance analysis
MDA-MB-231 = assay: Antiproliferative activity against human MDA-MB-231/ATCC cells assessed as growth inhibition after 48 hrs by sulforhodamine B assay; type: functional; details: MDA-MB-231, 48 h
SN12C = assay: Antiproliferative activity against human SN12C cells assessed as growth inhibition after 48 hrs by sulforhodamine B assay; type: functional
RXF 393 = assay: Antiproliferative activity against human RXF393 cells assessed as growth inhibition after 48 hrs by sulforhodamine B assay; type: functional; details: RXF 393, 48 h
COLO 205 = assay: Antiproliferative activity against human COLO205 cells assessed as growth inhibition after 48 hrs by sulforhodamine B assay; type: functional; details: COLO 205, 48 h
EKVX = assay: Antiproliferative activity against human EKVX cells assessed as growth inhibition after 48 hrs by sulforhodamine B assay; type: functional
HCT-15 = assay: Antiproliferative activity against human HCT15 cells assessed as growth inhibition after 48 hrs by sulforhodamine B assay; type: functional; details: HCT-15, 48 h
HOP-62 = assay: Antiproliferative activity against human HOP62 cells assessed as growth inhibition after 48 hrs by sulforhodamine B assay; type: functional; details: HOP-62, 48 h
786-0 = assay: Antiproliferative activity against human 786-0 cells assessed as growth inhibition after 48 hrs by sulforhodamine B assay; type: functional; details: 786-0, 48 h
OVCAR-8 = assay: Antiproliferative activity against human OVCAR8 cells assessed as growth inhibition after 48 hrs by sulforhodamine B assay; type: functional; details: OVCAR-8, 48 h
NCI-H23 = assay: Antiproliferative activity against human NCI-H23 cells assessed as growth inhibition after 48 hrs by sulforhodamine B assay; type: functional; details: NCI-H23, 48 h
LOX IMVI = assay: Antiproliferative activity against human LOXIMVI cells assessed as growth inhibition after 48 hrs by sulforhodamine B assay; type: functional

N=C(N)c1ccc(-c2ccc(-c3cc(Cl)cc(Cl)c3)s2)s1
GI50 (SNB-75): 1380 nM
fold change (FC) (HCT-116 [1]): 1.61
GI50 (OVCAR-3): 1810 nM
GI50 (SF-539): 1700 nM
GI50 (SF-268): 1960 nM
hemolysis at 0.5 h, 10000 µM [2]: 17%
GI50 (UO-31): 1740 nM
GI50 (A549): 2070 nM
GI50 (OVCAR-5): 1960 nM
inhibition [3]: 36.2%
GI50 (TK-10): 1850 nM
inhibition [4]: 27.2%
fold change (FC) (HCT-116 [5]): 3.98
GI50 (MCF7): 1340 nM
GI50 (MOLT-4): 1710 nM
GI50 (OVCAR-4): 1910 nM
hemolysis at 0.5 h, 5000 µM [6]: 6.7%
GI50 (PC-3): 1880 nM
GI50 (CAKI-1): 1720 nM
GI50 (NCI-H460): 2050 nM
GI50 (BT-549): 4370 nM
GI50 (MDA-MB-435): 1670 nM
GI50 (DU-145): 1820 nM
GI50 [7]: 1940 nM
LC50 [7]: 75800 nM
TGI [7]: 4460 nM
GI50 (UACC-257): 2050 nM
Activity [8]: Active
GI50 (MDA-MB-468): 2060 nM
GI50 (Malme-3M): 1850 nM
GI50 (SK-OV-3): 3620 nM
fold change (FC) (HCT-116 [9]): 0.21
Activity [10]: Active
GI50 (MDA-MB-231): 1870 nM
GI50 (SN12C): 2020 nM
GI50 (RXF 393): 1850 nM
GI50 (COLO 205): 1540 nM
GI50 (EKVX): 1750 nM
GI50 (HCT-15): 1620 nM
GI50 (HOP-62): 1760 nM
GI50 (786-0): 1980 nM
GI50 (OVCAR-8): 2390 nM
GI50 (NCI-H23): 1990 nM
GI50 (LOX IMVI): 1690 nM

N=C(N)c1ccc(-c2ccc(-c3ccc4ccccc4c3)s2)s1
GI50 (SNB-75): 1930 nM
fold change (FC) (HCT-116 [1]): 2.59
GI50 (OVCAR-3): 1890 nM
GI50 (SF-539): 1970 nM
GI50 (SF-268): 2250 nM
hemolysis at 0.5 h, 10000 µM [2]: 21.1%
GI50 (UO-31): 1960 nM
GI50 (A549): 2030 nM
GI50 (OVCAR-5): 1810 nM
inhibition [3]: 72.8%
GI50 (TK-10): 2230 nM
inhibition [4]: 54.6%
fold change (FC) (HCT-116 [5]): 1
GI50 (MCF7): 1750 nM
GI50 (MOLT-4): 1470 nM
GI50 (OVCAR-4): 1910 nM
hemolysis at 0.5 h, 5000 µM [6]: 13%
GI50 (PC-3): 2190 nM
GI50 (CAKI-1): 3110 nM
GI50 (NCI-H460): 1950 nM
GI50 (BT-549): 17600 nM
GI50 (MDA-MB-435): 1910 nM
GI50 (DU-145): 1830 nM
GI50 [7]: 2390 nM
LC50 [7]: 30200 nM
TGI [7]: 6020 nM
GI50 (UACC-257): 16100 nM
Activity [8]: Active
GI50 (MDA-MB-468): 2380 nM
GI50 (Malme-3M): 3100 nM
GI50 (SK-OV-3): 20200 nM
fold change (FC) (HCT-116 [9]): 0.93
Activity [10]: Active
GI50 (MDA-MB-231): 1850 nM
GI50 (SN12C): 1870 nM
GI50 (RXF 393): 1930 nM
GI50 (COLO 205): 1630 nM
GI50 (EKVX): 2460 nM
GI50 (HCT-15): 1690 nM
GI50 (HOP-62): 2080 nM
GI50 (786-0): 2140 nM
GI50 (OVCAR-8): 2270 nM
GI50 (NCI-H23): 2950 nM
GI50 (LOX IMVI): 1710 nM
